Laboratory results as given in ChEMBL document CHEMBL5149995, “An Alkynylpyrimidine-Based Covalent Inhibitor That Targets a Unique Cysteine in NF-κB-Inducing Kinase” (J Med Chem, 2021).
pIC50: −log10 of the molar value. Converted amounts (≈) assume the structure as drawn. The source made the active and inactive calls. The rule behind the calls is not given here.

What was measured:
[1] = target: Mitogen-activated protein kinase kinase kinase 14 (Homo sapiens, UniProt Q99558, S549D); test: Inhibition of His6-tagged human NIK (330 to 680 residues) S549D mutant expressed in baculovirus-infected Sf9 cells incubated for 30 mins in presence of ATP by ADP-GloTM assay
Mitogen-activated protein kinase kinase kinase 14, sequence (Q99558 whole entry S549D, the tested form may be a part): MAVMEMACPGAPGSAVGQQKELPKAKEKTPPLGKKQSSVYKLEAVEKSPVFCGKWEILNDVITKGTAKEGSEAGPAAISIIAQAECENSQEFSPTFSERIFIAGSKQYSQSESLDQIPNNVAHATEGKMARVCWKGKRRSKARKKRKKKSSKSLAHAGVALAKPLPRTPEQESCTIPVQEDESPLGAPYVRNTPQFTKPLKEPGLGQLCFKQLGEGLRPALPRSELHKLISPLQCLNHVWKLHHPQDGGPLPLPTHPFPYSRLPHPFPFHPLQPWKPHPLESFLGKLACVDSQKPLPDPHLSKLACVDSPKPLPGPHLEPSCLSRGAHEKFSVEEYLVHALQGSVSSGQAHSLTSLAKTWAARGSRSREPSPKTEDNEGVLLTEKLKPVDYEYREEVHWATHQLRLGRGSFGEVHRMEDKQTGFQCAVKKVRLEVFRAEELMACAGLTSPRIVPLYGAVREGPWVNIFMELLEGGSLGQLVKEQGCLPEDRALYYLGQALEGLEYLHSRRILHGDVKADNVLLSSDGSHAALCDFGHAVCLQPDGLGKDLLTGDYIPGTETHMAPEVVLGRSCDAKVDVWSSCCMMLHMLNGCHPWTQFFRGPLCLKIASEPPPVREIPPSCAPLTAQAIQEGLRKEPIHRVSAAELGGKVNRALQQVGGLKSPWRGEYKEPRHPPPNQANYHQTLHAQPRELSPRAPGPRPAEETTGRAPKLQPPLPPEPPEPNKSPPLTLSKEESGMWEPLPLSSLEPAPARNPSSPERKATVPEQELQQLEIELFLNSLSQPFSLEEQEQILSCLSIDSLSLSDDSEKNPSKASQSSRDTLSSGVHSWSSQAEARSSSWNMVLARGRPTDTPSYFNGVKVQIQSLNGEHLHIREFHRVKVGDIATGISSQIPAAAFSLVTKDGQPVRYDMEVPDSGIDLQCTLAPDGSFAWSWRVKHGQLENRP

Z-138 = test: Antiproliferative activity against NIK-activated human Z138 cells assessed as inhibition of cell growth incubated for 72 hrs by XTT assay; assay type: functional
Maver1 = test: Antiproliferative activity against NIK-activated human MAVER-1 cells assessed as inhibition of cell growth incubated for 72 hrs by XTT assay; assay type: functional
MCF7 = test: Antiproliferative activity against NIK-independent human MCF7 cells assessed as inhibition of cell growth incubated for 72 hrs by XTT assay; assay type: functional
JIM3 (Homo sapiens) = test: Antiproliferative activity against NIK-independent human JIM3 cells assessed as inhibition of cell growth incubated for 72 hrs by XTT assay; details: JIM3, 72 h
[2] = target: Mitogen-activated protein kinase kinase kinase 14 (Homo sapiens) (UniProt Q99558); test: Covalent binding affinity to NIK (unknown origin) assessed as protein-compound adduct formation by measuring increase in 330Da mass at 100 uM incubated for 6 hrs by mass spectrometry
Mitogen-activated protein kinase kinase kinase 14 (Homo sapiens), sequence (Q99558 whole entry, looked up, the tested form may be a part): as the sequence (Q99558 whole entry S549D, the tested form may be a part) above, with D549S counted along it

[3] = target: Mitogen-activated protein kinase kinase kinase 14 (Homo sapiens) (UniProt Q99558); test: Covalent binding affinity to NIK (unknown origin) assessed as labeling at Cys444 residue using Ala438-Arg451 peptide incubated for 18 hrs measured after tryptic digestion by MS/MS fragmentation spectral analysis
[4] = target: Mitogen-activated protein kinase kinase kinase 9 (Homo sapiens) (UniProt P80192); test: Inhibition of MLK1 (unknown origin) at 1 uM relative to control
[5] = target: Receptor tyrosine-protein kinase erbB-4 (Homo sapiens) (UniProt Q15303); test: Inhibition of HER4 (unknown origin) at 1 uM relative to control
Receptor tyrosine-protein kinase erbB-4 (Homo sapiens), sequence (Q15303 whole entry): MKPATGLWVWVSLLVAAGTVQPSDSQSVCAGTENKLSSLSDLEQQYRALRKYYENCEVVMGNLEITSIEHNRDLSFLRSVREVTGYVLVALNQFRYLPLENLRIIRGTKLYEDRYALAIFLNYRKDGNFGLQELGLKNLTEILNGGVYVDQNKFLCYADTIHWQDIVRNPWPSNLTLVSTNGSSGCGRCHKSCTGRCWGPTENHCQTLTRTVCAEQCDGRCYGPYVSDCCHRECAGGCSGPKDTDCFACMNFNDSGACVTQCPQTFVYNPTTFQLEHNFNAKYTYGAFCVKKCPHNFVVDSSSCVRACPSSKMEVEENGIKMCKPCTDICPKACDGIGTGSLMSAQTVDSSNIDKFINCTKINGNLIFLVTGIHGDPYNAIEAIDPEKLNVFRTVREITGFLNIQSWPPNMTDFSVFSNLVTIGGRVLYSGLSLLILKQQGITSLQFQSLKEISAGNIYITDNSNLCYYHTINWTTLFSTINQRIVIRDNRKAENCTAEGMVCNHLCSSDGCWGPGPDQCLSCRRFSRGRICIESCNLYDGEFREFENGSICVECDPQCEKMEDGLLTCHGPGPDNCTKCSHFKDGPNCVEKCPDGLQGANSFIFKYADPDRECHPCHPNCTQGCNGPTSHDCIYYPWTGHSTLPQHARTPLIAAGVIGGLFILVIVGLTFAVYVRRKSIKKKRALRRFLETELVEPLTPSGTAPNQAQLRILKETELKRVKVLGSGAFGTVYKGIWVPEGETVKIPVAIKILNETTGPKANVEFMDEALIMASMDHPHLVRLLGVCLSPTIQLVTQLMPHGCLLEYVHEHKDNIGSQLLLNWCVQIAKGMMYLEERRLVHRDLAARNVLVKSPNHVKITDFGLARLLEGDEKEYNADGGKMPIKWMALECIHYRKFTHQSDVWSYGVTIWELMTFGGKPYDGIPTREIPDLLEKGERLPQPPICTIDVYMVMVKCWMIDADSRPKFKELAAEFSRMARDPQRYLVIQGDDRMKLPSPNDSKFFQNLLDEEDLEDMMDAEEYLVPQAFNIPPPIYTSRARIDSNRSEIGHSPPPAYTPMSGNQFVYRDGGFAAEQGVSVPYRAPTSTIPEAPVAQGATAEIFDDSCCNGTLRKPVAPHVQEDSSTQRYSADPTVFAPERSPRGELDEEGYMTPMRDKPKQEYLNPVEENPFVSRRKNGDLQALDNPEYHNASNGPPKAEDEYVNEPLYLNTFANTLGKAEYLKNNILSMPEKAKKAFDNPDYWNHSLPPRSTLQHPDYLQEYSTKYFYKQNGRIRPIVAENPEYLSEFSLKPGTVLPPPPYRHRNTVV

[6] = target: T1, Serine/threonine-protein kinase Sgk1 (Homo sapiens) (UniProt O00141); test: Inhibition of SGK1 (unknown origin) at 1 uM relative to control
T1 sequence (whole entry): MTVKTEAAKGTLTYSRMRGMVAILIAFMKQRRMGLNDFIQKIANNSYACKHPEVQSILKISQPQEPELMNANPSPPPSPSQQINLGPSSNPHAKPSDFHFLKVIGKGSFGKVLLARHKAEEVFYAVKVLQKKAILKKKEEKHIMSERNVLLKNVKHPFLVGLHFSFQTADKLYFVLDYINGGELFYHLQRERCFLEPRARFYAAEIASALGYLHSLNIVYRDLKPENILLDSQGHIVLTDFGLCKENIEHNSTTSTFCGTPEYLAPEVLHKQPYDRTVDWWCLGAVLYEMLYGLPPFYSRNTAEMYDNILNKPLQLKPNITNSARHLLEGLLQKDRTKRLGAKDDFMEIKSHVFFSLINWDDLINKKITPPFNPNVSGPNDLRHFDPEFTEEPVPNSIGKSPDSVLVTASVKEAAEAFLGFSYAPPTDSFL

[7] = target: T2, Mitogen-activated protein kinase kinase kinase 7 (Homo sapiens) (UniProt O43318); test: Inhibition of TAK1 (unknown origin) at 1 uM relative to control
T2 sequence (whole entry): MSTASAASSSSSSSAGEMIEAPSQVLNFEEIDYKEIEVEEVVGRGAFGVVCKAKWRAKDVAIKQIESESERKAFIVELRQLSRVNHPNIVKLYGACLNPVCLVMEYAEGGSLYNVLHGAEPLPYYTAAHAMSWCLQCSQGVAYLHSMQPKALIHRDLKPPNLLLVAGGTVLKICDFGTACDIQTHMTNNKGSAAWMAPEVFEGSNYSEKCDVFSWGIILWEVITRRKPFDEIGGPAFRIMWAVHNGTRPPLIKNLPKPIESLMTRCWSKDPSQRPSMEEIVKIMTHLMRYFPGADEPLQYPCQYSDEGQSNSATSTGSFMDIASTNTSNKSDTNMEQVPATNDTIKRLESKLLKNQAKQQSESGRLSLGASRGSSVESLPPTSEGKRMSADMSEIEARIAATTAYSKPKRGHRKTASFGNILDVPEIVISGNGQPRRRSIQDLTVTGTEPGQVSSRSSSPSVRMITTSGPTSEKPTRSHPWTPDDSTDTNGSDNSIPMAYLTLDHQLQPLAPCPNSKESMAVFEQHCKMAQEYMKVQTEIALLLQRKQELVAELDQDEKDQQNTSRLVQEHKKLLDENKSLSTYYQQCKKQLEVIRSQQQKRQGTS

[8] = target: Platelet-derived growth factor receptor alpha (Homo sapiens) (UniProt P16234); test: Inhibition of PDGFRA (unknown origin) at 1 uM relative to control
Platelet-derived growth factor receptor alpha (Homo sapiens), sequence (P16234 whole entry): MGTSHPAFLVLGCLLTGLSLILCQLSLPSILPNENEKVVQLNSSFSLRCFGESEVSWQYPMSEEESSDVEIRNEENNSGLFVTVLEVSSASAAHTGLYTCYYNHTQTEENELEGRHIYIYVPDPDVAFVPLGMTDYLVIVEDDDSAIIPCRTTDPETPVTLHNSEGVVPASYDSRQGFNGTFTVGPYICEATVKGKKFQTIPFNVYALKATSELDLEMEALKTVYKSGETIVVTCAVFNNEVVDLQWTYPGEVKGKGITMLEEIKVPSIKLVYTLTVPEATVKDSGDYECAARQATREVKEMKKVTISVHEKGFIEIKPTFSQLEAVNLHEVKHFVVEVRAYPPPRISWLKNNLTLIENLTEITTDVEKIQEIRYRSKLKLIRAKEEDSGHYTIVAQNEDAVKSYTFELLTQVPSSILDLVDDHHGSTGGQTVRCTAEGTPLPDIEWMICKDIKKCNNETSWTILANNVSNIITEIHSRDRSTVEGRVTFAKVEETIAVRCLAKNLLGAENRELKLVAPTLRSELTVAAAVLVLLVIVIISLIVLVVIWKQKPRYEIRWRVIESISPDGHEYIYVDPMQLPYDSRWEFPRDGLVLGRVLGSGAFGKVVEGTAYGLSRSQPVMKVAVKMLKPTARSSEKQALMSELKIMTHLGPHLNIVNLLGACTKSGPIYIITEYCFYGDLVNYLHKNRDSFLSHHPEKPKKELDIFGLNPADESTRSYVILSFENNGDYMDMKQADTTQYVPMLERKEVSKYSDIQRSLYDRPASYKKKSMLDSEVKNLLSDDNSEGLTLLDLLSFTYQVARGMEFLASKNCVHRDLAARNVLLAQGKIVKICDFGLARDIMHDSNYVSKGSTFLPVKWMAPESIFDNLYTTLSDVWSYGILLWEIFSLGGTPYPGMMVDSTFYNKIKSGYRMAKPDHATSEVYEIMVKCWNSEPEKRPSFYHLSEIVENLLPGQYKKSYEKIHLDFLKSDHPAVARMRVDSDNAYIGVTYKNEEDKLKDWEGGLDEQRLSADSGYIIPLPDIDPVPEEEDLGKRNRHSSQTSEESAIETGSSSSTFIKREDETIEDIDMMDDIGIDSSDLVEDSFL

[9] = target: Tyrosine-protein kinase BTK (Homo sapiens) (UniProt Q06187); test: Inhibition of BTK (unknown origin) at 1 uM relative to control
Tyrosine-protein kinase BTK (Homo sapiens), sequence (Q06187 whole entry): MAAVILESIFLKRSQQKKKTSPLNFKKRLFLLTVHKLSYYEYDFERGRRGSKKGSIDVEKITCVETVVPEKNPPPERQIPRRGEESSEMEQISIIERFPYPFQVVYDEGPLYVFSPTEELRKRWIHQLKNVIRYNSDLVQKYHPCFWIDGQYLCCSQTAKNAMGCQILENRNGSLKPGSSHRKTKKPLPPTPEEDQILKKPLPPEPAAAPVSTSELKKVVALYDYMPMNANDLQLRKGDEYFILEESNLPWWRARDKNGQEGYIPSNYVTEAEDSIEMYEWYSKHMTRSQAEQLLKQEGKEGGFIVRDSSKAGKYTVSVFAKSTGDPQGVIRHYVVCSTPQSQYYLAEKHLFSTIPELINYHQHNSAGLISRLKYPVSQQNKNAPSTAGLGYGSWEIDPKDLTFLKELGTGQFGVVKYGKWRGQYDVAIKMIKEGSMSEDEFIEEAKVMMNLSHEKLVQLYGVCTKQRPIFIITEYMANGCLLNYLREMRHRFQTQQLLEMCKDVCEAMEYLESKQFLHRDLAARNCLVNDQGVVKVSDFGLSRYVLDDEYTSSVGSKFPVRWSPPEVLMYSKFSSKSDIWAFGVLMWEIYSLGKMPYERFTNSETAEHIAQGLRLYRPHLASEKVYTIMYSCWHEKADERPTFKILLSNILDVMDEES

[10] = target: Receptor-interacting serine/threonine-protein kinase 2 (Homo sapiens) (UniProt O43353); test: Inhibition of RIPK2 (unknown origin) at 1 uM relative to control
[11] = target: Aurora kinase B (Homo sapiens) (UniProt Q96GD4); test: Inhibition of Aurora B (unknown origin) at 1 uM relative to control
Homo sapiens = species on record: Homo sapiens; test: Inhibition of VEGFR (unknown origin) at 1 uM relative to control
[12] = target: Serine/threonine-protein kinase SIK2 (Homo sapiens) (UniProt Q9H0K1); test: Inhibition of SIK2 (unknown origin) at 1 uM relative to control
Serine/threonine-protein kinase SIK2 (Homo sapiens), sequence (Q9H0K1 whole entry, looked up): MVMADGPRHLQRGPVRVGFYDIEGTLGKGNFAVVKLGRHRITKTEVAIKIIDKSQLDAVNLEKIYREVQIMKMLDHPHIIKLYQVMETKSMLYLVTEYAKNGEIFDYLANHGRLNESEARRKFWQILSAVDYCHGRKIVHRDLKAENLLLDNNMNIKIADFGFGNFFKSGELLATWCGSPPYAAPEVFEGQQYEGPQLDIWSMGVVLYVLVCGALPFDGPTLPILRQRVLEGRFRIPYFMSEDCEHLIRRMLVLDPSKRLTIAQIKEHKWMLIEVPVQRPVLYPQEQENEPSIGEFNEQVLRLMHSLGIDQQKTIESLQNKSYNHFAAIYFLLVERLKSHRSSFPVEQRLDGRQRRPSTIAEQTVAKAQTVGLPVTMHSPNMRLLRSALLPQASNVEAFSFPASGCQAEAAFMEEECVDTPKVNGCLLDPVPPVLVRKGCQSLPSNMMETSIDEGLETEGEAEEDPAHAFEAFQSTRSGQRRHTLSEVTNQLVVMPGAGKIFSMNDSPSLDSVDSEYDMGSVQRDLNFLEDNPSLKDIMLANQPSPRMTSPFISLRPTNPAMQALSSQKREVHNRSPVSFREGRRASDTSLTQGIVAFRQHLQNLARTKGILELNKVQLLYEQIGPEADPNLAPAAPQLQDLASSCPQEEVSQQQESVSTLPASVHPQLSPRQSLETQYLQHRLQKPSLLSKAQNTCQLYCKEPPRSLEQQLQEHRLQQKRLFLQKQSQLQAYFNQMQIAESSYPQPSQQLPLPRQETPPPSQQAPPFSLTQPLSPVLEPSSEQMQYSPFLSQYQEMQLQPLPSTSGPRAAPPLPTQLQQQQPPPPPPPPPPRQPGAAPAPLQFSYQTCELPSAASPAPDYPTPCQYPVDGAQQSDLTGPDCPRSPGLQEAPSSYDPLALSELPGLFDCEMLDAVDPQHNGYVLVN

[13] = Lipophilicity, log D of the compound at pH 7.4; assay type: physicochemical; details: buffer
[14] = Solubility of the compound; assay type: physicochemical
[15] = Apparent permeability across apical to basolateral side in human Caco-2 cells; assay type: ADME, cell-based
[16] = Apparent permeability across basolateral to apical side in human Caco-2 cells; assay type: ADME, cell-based
[17] = Intrinsic clearance in rat hepatocytes measured per million of cells; assay type: ADME, cell-based, Hepatocyte; details: read-out: CLH
[18] = Intrinsic clearance in human hepatocytes measured per million of cells; assay type: ADME, cell-based, Hepatocyte; details: read-out: CLH

Structure (SMILES): C=CC(=O)NCCCCc1ccc2ncn(-c3ccnc(N)n3)c2c1
- pIC50 [1]: 3.30

Structure (SMILES): C=Cc1ccnc(C#Cc2ccc3ncn(-c4ccnc(N)n4)c3c2)c1
- pIC50 [1]: 5.80
- GI50 (Z-138): 0.398 µM
- GI50 (Maver1): 0.501 µM
- GI50 (MCF7): 1.26 µM
- GI50 (JIM3 (Homo sapiens)): 1.58 µM

Structure (SMILES): C#Cc1cccc(C#Cc2ccc3ncn(-c4ccnc(N)n4)c3c2)n1
- pIC50 [1]: 5.50

Structure (SMILES): Cc1ccnc(C#Cc2ccc3ncn(-c4ccnc(N)n4)c3c2)n1
- pIC50 [1]: 5.80

Structure (SMILES): C=CC(=O)NCCCc1ccc2ncn(-c3ccnc(N)n3)c2c1
- pIC50 [1]: 3.30

Structure (SMILES): C#Cc1ncc(C#Cc2ccc3ncn(-c4ccnc(N)n4)c3c2)cn1
- pIC50 [1]: 4.10

Structure (SMILES): C#Cc1ccnc(C#Cc2ccc3ncn(-c4ccnc(N)n4)c3c2)n1
- pIC50 [1]: 6.70
- Activity [2]: Active
- Activity [3]: Active
- inhibition [4]: > 50%
- inhibition [5]: > 50%
- inhibition [6]: > 50%
- inhibition [7]: > 50%
- inhibition [8]: > 50%
- inhibition [9]: > 50%
- inhibition [10]: > 50%
- inhibition [11]: > 50%
- inhibition (Homo sapiens): > 50%
- inhibition [12]: > 50%
- GI50 (Z-138): 0.631 µM
- GI50 (Maver1): 0.398 µM
- GI50 (MCF7): 0.501 µM
- logD [13]: 2.8
- solubility [14]: 3.8 µM (≈ 1.28 µg/mL)
- Papp A→B [15]: 0.33 ×10⁻⁶ cm/s
- Papp B→A [16]: 0.22 ×10⁻⁶ cm/s
- hepatocyte CLint [17]: 915 µL/min/1e6 cells
- hepatocyte CLint [18]: 382 µL/min/1e6 cells
- GI50 (JIM3 (Homo sapiens)): 0.501 µM

Structure (SMILES): C=Cc1ccc(C#Cc2ccc3ncn(-c4ccnc(N)n4)c3c2)cn1
- pIC50 [1]: 4.10

Structure (SMILES): CC(O)(C#Cc1ccc2c(c1)N(c1nc(N)ncc1Cl)CC2)c1nccs1 (stereo not drawn)
- pIC50 [1]: 8.40

Structure (SMILES): C#Cc1ccc2ncn(-c3ccnc(N)n3)c2c1
- pIC50 [1]: 6.60

Structure (SMILES): C#Cc1nccc(C#Cc2ccc3ncn(-c4ccnc(N)n4)c3c2)n1
- pIC50 [1]: 4.40

Structure (SMILES): CCc1ccc2ncn(-c3ccnc(N)n3)c2c1
- pIC50 [1]: 4.10

Structure (SMILES): C=Cc1cc(C#Cc2ccc3ncn(-c4ccnc(N)n4)c3c2)ccn1
- pIC50 [1]: 4.70

Structure (SMILES): COc1cc(C(N)=O)nc(-c2cccc(C#C[C@]3(O)CCN(C)C3=O)c2)c1
- GI50 (Z-138): 20 µM
- GI50 (Maver1): 3.98 µM
- GI50 (MCF7): > 31.6 µM
- GI50 (JIM3 (Homo sapiens)): > 31.6 µM

Structure (SMILES): C#Cc1cc(C#Cc2ccc3ncn(-c4ccnc(N)n4)c3c2)ncn1
- pIC50 [1]: 4.30

Structure (SMILES): CC(=O)NCCCCc1ccc2ncn(-c3ccnc(N)n3)c2c1
- pIC50 [1]: 3.40

Structure (SMILES): C=Cc1nccc(C#Cc2ccc3ncn(-c4ccnc(N)n4)c3c2)n1
- pIC50 [1]: 4.40

Structure (SMILES): C=Cc1ccnc(C#Cc2ccc3ncn(-c4ccnc(N)n4)c3c2)n1
- pIC50 [1]: 5.80
- GI50 (Z-138): 1 µM
- GI50 (Maver1): 1.26 µM
- GI50 (MCF7): 0.631 µM
- GI50 (JIM3 (Homo sapiens)): 1.58 µM

Structure (SMILES): C#Cc1cnc(C#Cc2ccc3ncn(-c4ccnc(N)n4)c3c2)nc1
- pIC50 [1]: 4.60

Structure (SMILES): C#Cc1ccnc(C#Cc2ccc3ncn(-c4ccnc(N)n4)c3c2)c1
- pIC50 [1]: 6.50
- GI50 (Z-138): 7.94 µM
- GI50 (Maver1): 10 µM
- GI50 (MCF7): > 10 µM
- GI50 (JIM3 (Homo sapiens)): > 7.94 µM

Structure (SMILES): C#Cc1cncc(C#Cc2ccc3ncn(-c4ccnc(N)n4)c3c2)n1
- pIC50 [1]: 5.20

Structure (SMILES): CC(=O)NCCCc1ccc2ncn(-c3ccnc(N)n3)c2c1
- pIC50 [1]: < 4.00

Structure (SMILES): COCCOc1cnc(N)nc1-c1c[nH]c2ccc(C#CC(C)(C)O)cc12
- pIC50 [1]: 7.40

Structure (SMILES): C=CC(=O)NCC#Cc1ccc2ncn(-c3ccnc(N)n3)c2c1
- pIC50 [1]: 5.20

Structure (SMILES): C#Cc1cc(C#Cc2ccc3ncn(-c4ccnc(N)n4)c3c2)ccn1
- pIC50 [1]: 4.50

Structure (SMILES): C#Cc1cncc(C#Cc2ccc3ncn(-c4ccnc(N)n4)c3c2)c1
- pIC50 [1]: 4.20
